Legend:
hnRNP A2/B1 = target: T1, hnRNP A2/B1 (Homo sapiens, UniProt P22626); assay: Competitive fluorescence polarization assay, hnRNP A2/B1 and RNA-AB; type: binding; details: Fig. 3C; competitive FP, 10 nM hnRNPA2/B1, 1 nM Cy5-labeled RNA-AB, 25 mM HEPES pH 8.0; read-out: P-6 Ki, construct hnRNP A2/B1
T1 construct: (1-251); made in house; host or cells: E. coli BL21 (DE3) RIPL
From the text: The RRM domain is the most commonly occurring RNA-binding domain in the proteome making it challenging to find selective inhibitors.[23,46] Although various ligands have been described, their selectivity is rarely investigated, with an exception for the Musashi-1 inhibitor Ro 08-2750.[47–58] To investigate whether P-6 has an effect on the RNA-binding of other dual RRM containing proteins, we evaluated its inhibitory potency against another hnRNP protein (hnRNP A2/B1) as well as a splicing factor from the SR-protein class (SRSF1).[1] We evaluated P-6 in competitive fluorescence polarization assays using previously described RNAs recognized by these proteins.[59] […]
performed in FP bufferPTBP1. […]
serially diluted in the same buffer. […]
a final concentration of 10 nM probe. […]
the settings mentioned previously.
Fluorescence polarization assay with SRSF1
Fluorescence polarization was
Fluorescence polarization assay with hnRNPA2/B1
For the competitive assay 10 nM
Microscale thermophoresis […]
afterwards serially diluted into FP buffer.
The data was evaluated at […]
experiments were performed in duplicates.
Circular Dichroism Spectroscopy […]
secondary structure analysis with a reference data set. For experiments with PTBP1 constructs the […]

PTBP1 RRM12-L151G = target: T2, PTBP1 RRM12-L151G (Homo sapiens, UniProt P26599, L151G); assay: Competitive fluorescence polarization assay, RRM12-L151G and RNA-2; type: binding; details: Fig. 3C; competitive FP with RNA-2; read-out: P-6 Ki, construct RRM12-L151G
T2 construct: (P57-V265); MBP (from pMAL vector); His tag; made in house; host or cells: E. coli BL21 DE3 RIL
T2 sequence (P26599 57-265 L151G): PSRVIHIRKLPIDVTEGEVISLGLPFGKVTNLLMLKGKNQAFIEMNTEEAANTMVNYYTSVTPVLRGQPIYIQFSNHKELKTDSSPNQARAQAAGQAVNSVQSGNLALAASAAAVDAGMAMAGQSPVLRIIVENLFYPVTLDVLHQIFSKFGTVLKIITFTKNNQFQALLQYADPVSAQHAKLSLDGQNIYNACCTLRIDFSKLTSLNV
From the text: Different PTBP1 variants were used to investigate the mode of action of P-6via competitive FP experiments. As illustrated in Fig. 1A there is a short linker between RRM1 and the α3-helix which also makes contacts with the RNA. It is possible that when P-6 occupies the binding site of the helix, this linker is displaced disrupting its interactions with the RNA and lowering the RNA-binding affinity. To test this, we measured whether P-6 could inhibit RRM1 RNA-binding. […] Therefore, it seems most likely that P-6 inhibits RRM12 via disturbing the coordinated RNA-binding of the two RRM domains. As this is possibly regulated by the helix we tested if the peptide could inhibit RRM12–L151G where the role of the helix is reduced (Fig. 3C and S5 ^†). […] These findings further support a mode of action where P-6 disturbs coordinated RNA-binding by RRM1 and 2. […]
size exclusion chromatography (Superdex 75 16/60 or 26/60) with SEC buffer (50 mM Tris, 200 mM NaCl). Protein homogeneity was assessed by the size exclusion chromatogram and purity was checked by SDS-PAGE analysis to be >= 90%.
The gene encoding for SRSF1-RRM12 (1-195) was subcloned into pOPIN-His expression vector and expressed in E. coli BL21 (DE3). […]
Fluorescence polarization assay with PTBP1 […]

T1 sequence (P22626 1-251, species assumed): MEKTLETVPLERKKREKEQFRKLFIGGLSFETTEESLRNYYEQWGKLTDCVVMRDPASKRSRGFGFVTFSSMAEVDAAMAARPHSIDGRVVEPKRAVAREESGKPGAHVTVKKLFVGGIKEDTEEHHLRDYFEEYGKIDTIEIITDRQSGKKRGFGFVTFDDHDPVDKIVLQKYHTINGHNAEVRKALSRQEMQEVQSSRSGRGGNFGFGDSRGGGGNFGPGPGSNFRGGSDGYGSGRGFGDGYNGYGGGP

CC(=O)N[C@@H](CC(N)=O)C(=O)N[C@@H](CCC(N)=O)C(=O)N[C@@]1(C)CCCC=CCCCC2(CCCC=CCCC[C@](C)(C(=O)N[C@H](C(=O)N[C@@H](CC(N)=O)C(N)=O)C(C)C)NC(=O)[C@H](CCC(N)=O)NC(=O)[C@H](CC(C)C)NC(=O)[C@H](C)NC2=O)NC(=O)[C@H](CCC(N)=O)NC(=O)[C@H](C)NC(=O)[C@H](CCCNC(=N)N)NC1=O (some centres unmarked) [Peptide P-6]
Ki (hnRNP A2/B1): > 1 mM | Ki (PTBP1 RRM12-L151G): > 750 µM
